Results taken from a compilation of properties of binary mixtures (doi:10.1021/acs.jced.8b00965).

Experiment: xn = mol fraction of the nth substance listed
Details: 100 kPa

C[N+](C)(C)CCC[n+]1ccccc1.N#C[N-]C#N.N#C[N-]C#N + CO
viscosity [mPa·s]
Details | x1 = 0.0999 | x1 = 0.2001 | x1 = 0.3002 | x1 = 0.3999 | x1 = 0.5002 | x1 = 0.6001 | x1 = 0.7003 | x1 = 0.7998 | x1 = 0.8995 | x1 = 1
293.15 K | 4.37 | 14.9 | 32.5 | – | 117 | 233 | 343 | 508 | – | 2191
303.15 K | 3.66 | 11.4 | 23.1 | 45.9 | – | 131 | – | 255 | 396 | 830
313.15 K | – | 9.01 | 17.4 | – | – | 81.1 | 110 | – | 198 | –
323.15 K | 2.82 | 7.36 | – | – | – | – | 70.6 | 90.5 | 116 | 210
333.15 K | – | – | 11.4 | – | 28 | – | 49.3 | 60.6 | 76 | 127

CO + C[N+](C)(C)CCC[N+]1(C)CCCCC1.N#C[N-]C#N.N#C[N-]C#N
x2 = 0
Details | viscosity [mPa·s]
303.15 K | 0.508
313.15 K | 0.446
333.15 K | 0.352

C[N+](C)(C)CCC[N+]1(C)CCCCC1.N#C[N-]C#N.N#C[N-]C#N + CO
viscosity [mPa·s]
Details | x1 = 0.0999 | x1 = 0.2001 | x1 = 0.3002 | x1 = 0.3999 | x1 = 0.5002 | x1 = 0.6001 | x1 = 0.7003 | x1 = 0.7998 | x1 = 0.8995 | x1 = 1
293.15 K | 4.25 | 14.7 | 39.6 | 109 | – | – | 1181 | 1884 | 2855 | 4503
303.15 K | 3.58 | – | – | 70.3 | – | 330 | 610 | 920 | 1281 | 1837
313.15 K | 3.09 | 8.9 | 20.3 | 46.7 | 100 | 203 | 337 | 489 | 646 | 860
323.15 K | – | 7.22 | – | 33.8 | 68 | 130 | 206 | 292 | 369 | 460
333.15 K | 2.46 | 6 | 12.5 | – | 48.4 | 88.2 | 134 | 187 | 236 | 270

CO + C[N+](C)(C)CCC[n+]1ccccc1.N#C[N-]C#N.N#C[N-]C#N
x2 = 0
Details | viscosity [mPa·s]
293.15 K | 0.584
303.15 K | 0.508
313.15 K | 0.446
323.15 K | 0.395
333.15 K | 0.352
